The record followed here is ChEMBL document CHEMBL4396936 (Bioorg Med Chem Lett, 2019).

Assay [1] concerns the target T1, Indoleamine 2,3-dioxygenase 1 (Homo sapiens, UniProt P14902). The assay can be described thus: Binding affinity to recombinant ferric state of IDO1 (unknown origin) expressed in Escherichia coli assessed as dissociation constant incubated for 30 mins by UV-Visible spectrophotometric method.
Target sequence in this assay (P14902 whole entry): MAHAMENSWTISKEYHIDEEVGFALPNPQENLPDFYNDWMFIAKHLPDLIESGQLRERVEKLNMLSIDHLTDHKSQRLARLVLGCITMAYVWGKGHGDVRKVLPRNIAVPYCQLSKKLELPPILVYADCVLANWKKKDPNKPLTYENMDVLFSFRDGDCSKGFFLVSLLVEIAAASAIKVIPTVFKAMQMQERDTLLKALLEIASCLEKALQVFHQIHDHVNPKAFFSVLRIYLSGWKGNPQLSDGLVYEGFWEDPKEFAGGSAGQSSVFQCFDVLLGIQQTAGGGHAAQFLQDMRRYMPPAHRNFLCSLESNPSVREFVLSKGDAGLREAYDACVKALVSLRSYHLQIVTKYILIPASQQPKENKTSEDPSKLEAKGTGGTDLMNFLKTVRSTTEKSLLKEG
Assay [2] deals with T1, Indoleamine 2,3-dioxygenase 1. The assay can be described thus: Binding affinity to recombinant ferrous state of IDO1 (unknown origin) expressed in Escherichia coli assessed as dissociation constant incubated for 30 mins by UV-Visible spectrophotometric method.
Target sequence in this assay (P14902 whole entry): as above
For assay [3] the target is unchanged. The experiment in a line: Inhibition of recombinant IDO1 (unknown origin) expressed in Escherichia coli at 10 uM incubated for 30 mins by methylene blue dye based UV-Visible spectrophotometric method relative to control.
Target sequence in this assay (P14902 whole entry, looked up): as the sequence (P14902 whole entry) above
Assay [4] relates to Indoleamine 2,3-dioxygenase 1 (Homo sapiens), P14902 [C129Y]. The assay can be described thus: Inhibition of recombinant IDO1 C129Y mutant (unknown origin) expressed in Escherichia coli at 10 uM incubated for 30 mins by methylene blue dye based UV-Visible spectrophotometric method relative to control.
Assay [5] addresses Indoleamine 2,3-dioxygenase 1 (Homo sapiens, UniProt P14902, C129Y). The assay can be described thus: Binding affinity to recombinant ferrous state of IDO1 C129Y mutant (unknown origin) expressed in Escherichia coli assessed as dissociation constant incubated for 30 mins by UV-Visible spectrophotometric method.

Chain of Indoleamine 2,3-dioxygenase 1 (Homo sapiens), P14902 [C129Y] (P14902 whole entry C129Y): as the sequence (P14902 whole entry) above, with C129Y counted along it
Chain of Indoleamine 2,3-dioxygenase 1 (Homo sapiens, UniProt P14902, C129Y) (P14902 whole entry C129Y): as the sequence (P14902 whole entry) above, with C129Y counted along it

By Kd is commonly meant a measure of binding affinity in units of concentration. Broadly, the inhibition is the change of the read-out against control, counted positive when it falls. For `Cc1cc([Si](C)(C)C)c2cn[nH]c2c1`, the Kd in assay [1] is 2.5 µM; in assay [2] it was 1.7 µM. For the same compound, in assay [3], the inhibition came out at 50%.

Take `C[Si](C)(C)c1cccc2[nH]ncc12`: the dissociation constant Kd in assay [1] stood at 150 µM; in assay [2], 43 µM. The inhibition in assay [3] turned out to be 7.2%.

Regarding `c1ccc2[nH]ncc2c1`, the inhibition in assay [3] is 1%.

With `OC(Cc1ccccc1)c1cc(C2CC2)cc2[nH]ncc12` (racemic), the inhibition in assay [4] was 20%; in assay [3], 62%. Further, the Kd in assay [5] was determined as 28 µM; in assay [2], 1.2 µM.

On to `OC(Cc1ccccc1)c1cc(-c2ccccc2)cc2[nH]ncc12` (racemic), for which the inhibition in assay [4] stood at 14%; in assay [3] it was 4%. The Kd in assay [2] is 53 µM.

As to `OC(Cc1ccccc1)c1cc(Br)cc2[nH]ncc12` (racemic), the dissociation constant Kd is 0.6 µM in assay [1], 2.2 µM in assay [5] and 0.14 µM in assay [2]. Also, the values for the inhibition in assay [4] and in assay [3] were 23% and 90%, respectively.

On to `CCc1cc(C(O)Cc2ccccc2)c2cn[nH]c2c1` (racemic), for which the Kd was determined as 1.1 µM in assay [1], 44 µM in assay [5] and 0.74 µM in assay [2]. The inhibition in assay [4] came to 18%; in assay [3], 70%.

For the compound `OC(Cc1ccccc1)c1cccc2[nH]ncc12` (racemic), the Kd came out at 31 µM in assay [1], 66 µM in assay [5] and 7.9 µM in assay [2]. Besides, the values for the inhibition in assay [4] and in assay [3] were 14% and 13%, respectively.

As for `C#Cc1cc(C(O)Cc2ccccc2)c2cn[nH]c2c1` (racemic), the Kd in assay [1] was determined as 7.4 µM; in assay [5] it was 94 µM; in assay [2], 1.3 µM. The inhibition in assay [4] stood at 12%; in assay [3], 32%.

Turning to `Cc1cc(C(O)Cc2ccccc2)c2cn[nH]c2c1` (racemic), the Kd is 1.2 µM in assay [1], 27 µM in assay [5] and 0.47 µM in assay [2]. In addition, the values for the inhibition in assay [4] and in assay [3] were 18% and 76%, respectively.
